In patent EP2826473A1, “NOVEL USE OF PATCHOULOL” (Chengdu Huasun Group Inc., Ltd., priority 2012, dated 2013):
In brackets after ≈: the same amount, converted by molar mass. Like-named read-outs stand apart in the source and are kept apart here.

Legend:
[1] = test system: Staphylococcus aureus ATCC 25923; test: prevention of bacterial infection, colony count on patchoulol-coated tubes; details: cultured 7 days at 37°C
Shiglla flexneri = test: in vitro bacteriostatic activity, agar dilution MIC; type: cell-based
Experimental: (§1) Preparation of drug-containing flat plates: patchoulol was diluted by coubling double dilution in DMSO, and 1 ml and 14 ml of sterile MH culture media in different gradient concentrations were respectively added to the disposable sterile petri dishes. Tested drugs were respectively diluted to different gradient concentrations from 768 to 0.006 µg/ml, fully mixed, and dried to reserve. As mentioned above, replacing tested drug with same amount of normal saline was used to prepare positive control plates.
(§2) Preparation of bacterial liquid: Tested strains and drug-sensitive strains used for quality control were diluted with stroke-physiological saline solution to the concentration of 10^6 CFU/ml.
(§3) Bacteriostatic activity assay […]: using multipoint inoculation instrument, the tested strain liquid was added to the drug-containing flat plates with different gradient concentrations and positive control plates respectively, and replacing the bacterial liquid with 5 µL normal saline, served as the negative control.
(§4) Staphylococcus aureus and Staphylococcus epidermidis were cultured at 35-37°C for 18-24 h in MH media (containing 2% NaCl); Streptococcus pneumonia was cultured in brain heart infusion agar media (containing 5% goat blood) within an incubator under 5% CO2 at 35°C for 24 hours; Gram-negative bacteria and other strains were placed in an incubator at 35-37°C and cultured for 18-20 h; Results were observed and recorded.
(§5) Result assessment: The minimum concentration of drug in no bacterial growth plates was regarded as the minimum inhibitory concentration (MIC) of the drug to the stain.

Escherichia coli E^+ = test: as above; type: cell-based
Experimental: as §1, §2, §3, §4, §5

Staphylococcus wameri = test: as above; type: cell-based
[2] = test system: Staphylococcus aureus MRSA; test: as above; type: cell-based
[3] = test system: Staphylococcus haemolyticus; test: as above; type: cell-based
Escherichia coli E^- = test: as above; type: cell-based
Klebsiella pneumonia E^+ = test: as above; type: cell-based; details: Klebsiella pneumoniae
[4] = test system: Staphylococcus epidermidis MRSE; test: as above; type: cell-based
influenza virus FM1 = details: 30 mg/kg; cited from earlier work
[5] = cited from earlier work

For C[C@H]1CC[C@@]2(O)C(C)(C)[C@@H]3CC[C@@]2(C)[C@H]1C3 (stereo in doubt) [PC, (1R,4S,4aS,6R,8aS)-octahydro-4,8a,9,9-tetramethyl-1,6-methanonaphthalen-1(2H)-ol], which bacterial colony numbers ([1]; 400, 200, 100 and 50 µg/ml, compared with 0 µg/ml) is on record?
Its bacterial colony numbers is “decrease”.

What about the bacterial colony numbers ([1]; patchoulol on intraductal membranes more than or equal to 600 µg/ml) of the same compound?
The bacterial colony numbers was 0.

And the MIC (Shiglla flexneri; Shiglla flexneri 12-1)?
Its MIC is 400 µg/mL (≈ 1800 µM).

And the MIC (Shiglla flexneri; Shiglla flexneri 12-2, read-out: MIC)?
The MIC was 50 µg/mL (≈ 225 µM).

And the MIC (Escherichia coli E^+; Escherichia coli E^+ 10-7)?
Its MIC is over 768 µg/mL.

What about the MIC (Escherichia coli E^+; Escherichia coli E^+ 10-9) of the same compound?
The MIC was over 768 µg/mL.

And the MIC (Staphylococcus wameri)?
Its MIC is 50 µg/mL (≈ 225 µM).

And the MIC ([2]; ATCC 43300 / MRSA, Methicillin-resistant Staphylococcus aureus ATCC 43300, read-out: MIC)?
Its MIC is 128 µg/mL (≈ 576 µM).

What about the MIC ([2]; MRSA, Staphylococcus aureus MRSA 10-31, read-out: MIC) of the same compound?
The MIC was 1.5 µg/mL (≈ 6.75 µM).

What about the MIC ([2]; MRSA, Staphylococcus aureus MRSA 10-32, read-out: MIC) of the same compound?
The MIC was 1.5 µg/mL (≈ 6.75 µM).

What about the MIC ([2]; MRSA, Staphylococcus aureus MRSA 12-11, read-out: MIC) of the same compound?
Its MIC is 128 µg/mL (≈ 576 µM).

And the MIC ([2]; MRSA, Staphylococcus aureus MRSA 12-12, read-out: MIC)?
The MIC was 128 µg/mL (≈ 576 µM).

What about the MIC ([2]; MRSA, Staphylococcus aureus MRSA 12-13, read-out: MIC) of the same compound?
Its MIC is 64 µg/mL (≈ 288 µM).

And the MIC ([2]; MRSA, Staphylococcus aureus MRSA 12-14, read-out: MIC)?
Its MIC is 64 µg/mL (≈ 288 µM).

What about the MIC ([2]; MRSA, Staphylococcus aureus MRSA 12-15, read-out: MIC) of the same compound?
The MIC was 64 µg/mL (≈ 288 µM).

And the MIC ([2]; MRSA, Staphylococcus aureus MRSA 12-16, read-out: MIC)?
The MIC was 64 µg/mL (≈ 288 µM).

What about the MIC ([2]; MRSA, Staphylococcus aureus MRSA 12-17, read-out: MIC) of the same compound?
Its MIC is 128 µg/mL (≈ 576 µM).

And the MIC ([2]; MRSA, Staphylococcus aureus MRSA 12-18, read-out: MIC)?
Its MIC is 128 µg/mL (≈ 576 µM).

And the MIC ([2]; MRSA, Staphylococcus aureus MRSA 12-19, read-out: MIC)?
Its MIC is 64 µg/mL (≈ 288 µM).

And the MIC ([2]; MRSA, Staphylococcus aureus MRSA 12-20, read-out: MIC)?
Its MIC is 128 µg/mL (≈ 576 µM).

And the MIC [3]?
Its MIC is 100 µg/mL (≈ 450 µM).

What about the MIC (Escherichia coli E^-; Escherichia coli E^- 10-12) of the same compound?
The MIC was over 768 µg/mL.

And the MIC (Escherichia coli E^-; Escherichia coli E^- 10-18)?
The MIC was over 768 µg/mL.

What about the MIC (Klebsiella pneumonia E^+; Klebsiella pneumonia E^+ 10-2) of the same compound?
The MIC was over 768 µg/mL.

And the MIC (Klebsiella pneumonia E^+; Klebsiella pneumonia E^+ 10-6)?
Its MIC is over 768 µg/mL.

What about the MIC ([4]; Staphylococcus epidermidis MRSE 10-40, read-out: MIC) of the same compound?
Its MIC is 1.5 µg/mL (≈ 6.75 µM).

What about the MIC ([4]; Staphylococcus epidermidis MRSE 10-44, read-out: MIC) of the same compound?
Its MIC is 1.5 µg/mL (≈ 6.75 µM).

And the MIC ([4]; Staphylococcus epidermidis MRSE 12-11, read-out: MIC)?
The MIC was 128 µg/mL (≈ 576 µM).

What about the MIC ([4]; Staphylococcus epidermidis MRSE 12-12, read-out: MIC) of the same compound?
Its MIC is 32 µg/mL (≈ 144 µM).

And the MIC ([4]; Staphylococcus epidermidis MRSE 12-15, read-out: MIC)?
The MIC was 32 µg/mL (≈ 144 µM).

What about the MIC ([4]; Staphylococcus epidermidis MRSE 12-16, read-out: MIC) of the same compound?
The MIC was 32 µg/mL (≈ 144 µM).

What about the MIC ([4]; Staphylococcus epidermidis MRSE 12-17, read-out: MIC) of the same compound?
The MIC was 32 µg/mL (≈ 144 µM).

What about the MIC ([4]; Staphylococcus epidermidis MRSE 12-18, read-out: MIC) of the same compound?
Its MIC is 32 µg/mL (≈ 144 µM).

And the MIC ([4]; Staphylococcus epidermidis MRSE 12-19, read-out: MIC)?
The MIC was 32 µg/mL (≈ 144 µM).

And the MIC ([4]; Staphylococcus epidermidis MRSE 12-20, read-out: MIC)?
Its MIC is 128 µg/mL (≈ 576 µM).

What about the MIC ([4]; Staphylococcus epidermidis MRSE 12-21, read-out: MIC) of the same compound?
Its MIC is 128 µg/mL (≈ 576 µM).

What about the MIC ([4]; Staphylococcus epidermidis MRSE 12-22, read-out: MIC) of the same compound?
Its MIC is 32 µg/mL (≈ 144 µM).

And the “survival rate of infected mice” value (influenza virus FM1)?
The value was “improve the survival rate”.

And the solubility ([5]; in petroleum ether, ethanol and other commonly used organic solvents)?
Its solubility is “freely soluble”.

What about the solubility ([5]; in water) of the same compound?
The solubility was “insoluble”.
